Results on one compound are retold here after US20150182745A1, “IONTOPHORETIC DEVICE FOR DOSAGING OF AN ACTIVE INGREDIENT” (NOVAGENT OY, priority 2012, published 2015).

The conditions of data set [1]: in vivo; cited from earlier work.
For data set [2] the following is noted: swine. The source says:
The invention is further described more in detail by the following examples. In the examples a device according to FIG. 2 was used. The electrodes are made of a carbon fiber textile, onto which a hydrophobic micro-porous layer of teflon is fitted. As model agent was used tacrine, which is a cationic drug. The chamber section 13a, the electrolyte space, comprised a 0.15 M aqueous solution of sodium sulphate and the chamber section 13b, the space comprising the active agent, comprised a 0.15 M aqueous solution of sodium chloride, which corresponds to a physiological salt solution. […] The membrane 15 was either a synthetic membrane (UC 101T) or swine skin. In the experiments were used Smopex®-ion exchanging fibres, made by Smoptech (Johnson Matthey).

As for `Nc1c2c(nc3ccccc13)CCCC2` [tacrine], in data set [1], the “clearance CL” value is on record as 150 dm^3h^−1 and the therapeutic window is 5-30 μg dm^−3. Besides, in data set [2], the passive flow is on record as 1.99 μg cm^−2h^−1 and the “passive flow (slope)” value came to 1.81 μg cm^−2h^−1.
